Where two headings read alike, the source gives them in different places.
Columns and labels:
Experiment in all cases: Kinase panel profiling at 1 µmol/L (MSA or IMAP), percentage inhibition
Format in all cases: biochemical
[1] = molecular target: T1, panel of 255 wild-type kinases (Homo sapiens, UniProt Q9UL54); settings: read-out: %-inhibition at 1 µmol/L, TAOK2
T1 sequence (Q9UL54 1-1235): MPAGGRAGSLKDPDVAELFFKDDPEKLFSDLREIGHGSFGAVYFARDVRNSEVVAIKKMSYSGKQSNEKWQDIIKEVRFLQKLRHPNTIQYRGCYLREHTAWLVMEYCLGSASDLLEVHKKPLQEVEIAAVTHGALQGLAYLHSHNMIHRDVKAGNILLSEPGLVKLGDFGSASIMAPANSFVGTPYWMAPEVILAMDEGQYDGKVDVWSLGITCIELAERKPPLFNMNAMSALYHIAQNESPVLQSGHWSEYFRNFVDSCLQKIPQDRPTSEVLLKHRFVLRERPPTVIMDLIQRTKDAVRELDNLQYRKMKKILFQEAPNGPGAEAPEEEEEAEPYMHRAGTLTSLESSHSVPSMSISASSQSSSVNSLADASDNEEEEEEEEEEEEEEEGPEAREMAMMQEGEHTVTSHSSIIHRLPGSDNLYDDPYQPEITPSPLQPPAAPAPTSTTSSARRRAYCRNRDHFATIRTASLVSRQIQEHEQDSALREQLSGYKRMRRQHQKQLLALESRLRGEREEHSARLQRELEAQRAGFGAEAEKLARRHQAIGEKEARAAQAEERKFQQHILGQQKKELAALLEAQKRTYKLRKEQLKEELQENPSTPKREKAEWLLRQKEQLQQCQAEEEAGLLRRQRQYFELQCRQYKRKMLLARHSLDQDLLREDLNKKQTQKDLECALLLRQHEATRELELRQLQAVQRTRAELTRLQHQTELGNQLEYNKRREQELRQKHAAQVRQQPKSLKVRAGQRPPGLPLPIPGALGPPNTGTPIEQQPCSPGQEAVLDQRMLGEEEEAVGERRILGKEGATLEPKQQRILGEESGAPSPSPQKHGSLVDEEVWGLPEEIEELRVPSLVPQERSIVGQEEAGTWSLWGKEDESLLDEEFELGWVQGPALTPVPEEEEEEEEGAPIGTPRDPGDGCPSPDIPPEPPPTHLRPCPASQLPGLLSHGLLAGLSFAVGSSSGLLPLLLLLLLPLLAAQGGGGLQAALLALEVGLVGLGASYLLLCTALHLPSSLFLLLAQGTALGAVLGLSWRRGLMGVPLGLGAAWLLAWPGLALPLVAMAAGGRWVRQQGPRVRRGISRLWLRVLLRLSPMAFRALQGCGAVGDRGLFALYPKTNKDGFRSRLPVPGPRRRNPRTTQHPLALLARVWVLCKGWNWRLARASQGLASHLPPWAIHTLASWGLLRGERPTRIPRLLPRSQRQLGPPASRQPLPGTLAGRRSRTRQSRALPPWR

[2] = molecular target: T2, panel of 255 wild-type kinases (Homo sapiens, UniProt Q9H093); settings: read-out: %-inhibition, NuaK2
T2 sequence (Q9H093 1-628): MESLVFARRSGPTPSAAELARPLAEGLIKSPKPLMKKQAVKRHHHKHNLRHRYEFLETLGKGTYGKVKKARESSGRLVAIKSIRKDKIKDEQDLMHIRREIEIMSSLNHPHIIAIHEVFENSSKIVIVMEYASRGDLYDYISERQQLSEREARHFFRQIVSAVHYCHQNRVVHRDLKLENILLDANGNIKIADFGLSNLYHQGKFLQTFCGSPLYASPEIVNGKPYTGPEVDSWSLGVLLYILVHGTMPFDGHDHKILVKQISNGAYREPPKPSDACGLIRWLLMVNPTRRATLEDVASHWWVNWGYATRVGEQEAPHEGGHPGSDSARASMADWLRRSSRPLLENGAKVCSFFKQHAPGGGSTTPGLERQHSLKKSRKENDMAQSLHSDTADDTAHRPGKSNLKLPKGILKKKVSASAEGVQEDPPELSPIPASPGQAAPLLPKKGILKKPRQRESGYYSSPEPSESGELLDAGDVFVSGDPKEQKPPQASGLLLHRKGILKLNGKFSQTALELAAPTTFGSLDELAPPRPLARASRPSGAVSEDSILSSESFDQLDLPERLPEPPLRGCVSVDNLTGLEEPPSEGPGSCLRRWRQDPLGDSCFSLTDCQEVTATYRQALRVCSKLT

[3] = molecular target: T3, panel of 255 wild-type kinases (Homo sapiens, UniProt P29322); settings: read-out: %-inhibition at 1 µmol/L, EPHA8
T3 sequence (P29322 28-1005): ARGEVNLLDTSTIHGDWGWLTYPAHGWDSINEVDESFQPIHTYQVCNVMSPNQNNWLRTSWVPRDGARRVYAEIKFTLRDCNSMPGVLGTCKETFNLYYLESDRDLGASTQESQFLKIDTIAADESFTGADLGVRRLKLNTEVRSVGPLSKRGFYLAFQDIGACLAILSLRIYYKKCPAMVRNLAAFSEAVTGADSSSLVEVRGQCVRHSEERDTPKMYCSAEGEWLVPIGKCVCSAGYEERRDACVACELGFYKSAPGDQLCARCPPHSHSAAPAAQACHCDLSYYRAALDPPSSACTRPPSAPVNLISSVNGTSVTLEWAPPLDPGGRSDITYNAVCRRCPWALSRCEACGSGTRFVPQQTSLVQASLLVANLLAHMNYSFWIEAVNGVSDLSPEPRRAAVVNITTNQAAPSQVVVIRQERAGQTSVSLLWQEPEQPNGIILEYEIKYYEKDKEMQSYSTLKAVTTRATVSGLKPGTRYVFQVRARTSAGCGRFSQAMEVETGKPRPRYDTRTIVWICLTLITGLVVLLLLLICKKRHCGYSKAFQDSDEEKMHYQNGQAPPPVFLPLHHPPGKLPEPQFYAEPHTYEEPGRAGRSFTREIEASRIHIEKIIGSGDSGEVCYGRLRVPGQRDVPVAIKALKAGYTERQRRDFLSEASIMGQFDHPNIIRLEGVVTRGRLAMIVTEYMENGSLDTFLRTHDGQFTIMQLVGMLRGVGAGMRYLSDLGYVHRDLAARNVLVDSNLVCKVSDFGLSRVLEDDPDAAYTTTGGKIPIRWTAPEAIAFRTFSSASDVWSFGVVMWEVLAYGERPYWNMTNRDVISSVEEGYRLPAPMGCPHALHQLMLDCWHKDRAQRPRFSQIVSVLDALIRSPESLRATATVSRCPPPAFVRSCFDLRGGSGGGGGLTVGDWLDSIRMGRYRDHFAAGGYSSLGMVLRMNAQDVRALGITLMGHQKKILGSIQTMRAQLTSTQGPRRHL

[4] = kinase TAOK2, 1 µmol/L single concentration
[5] = NuaK2, 1 µmol/L single concentration
[6] = kinase EPHA8, 1 µmol/L single concentration

Structure (SMILES)	inhibition at 1 µM [1, 4] [%]	inhibition at 1 µM [2, 5] [%]	inhibition at 1 µM [3, 6] [%]	inhibition at 1 µM [1] [%]	inhibition at 1 µM [2] [%]	inhibition at 1 µM [3] [%]
CO[C@]1(C(=O)N[C@@H](C)c2ccc(-n3cc(F)cn3)nc2)CC[C@H](c2nc(C)cc(Nc3cc(C)[nH]n3)n2)CC1 [pralsetinib]	14	75	84	–	–	–
COc1cc2ncnc(Nc3ccc(F)c(Cl)c3)c2cc1NC(=O)/C=C/CN1CCCCC1 [dacomitinib]	1	2	59	–	–	–
CCn1c(=O)c(-c2cc(NC(=O)Nc3ccccc3)c(F)cc2Br)cc2cnc(NC)cc21 [ripretinib]	89	1.36	101	–	–	–
Cc1nc(NC(=O)N2CCC[C@H]2C(N)=O)sc1-c1ccnc(C(C)(C)C(F)(F)F)c1 [alpelisib]	-1.44	6	-6.59	–	–	–
C=CC(=O)N1CCC([C@@H]2CCNc3c(C(N)=O)c(-c4ccc(Oc5ccccc5)cc4)nn32)CC1 [zanubrutinib]	4	0.524	-8	–	–	–
O=C(Nc1cnn2ccc(N3CCC[C@@H]3c3cc(F)ccc3F)nc12)N1CC[C@H](O)C1 [larotrectinib]	3.76	0.385	-9	–	–	–
Cc1cc(Nc2ncnc3ccc(NC4=NC(C)(C)CO4)cc23)ccc1Oc1ccn2ncnc2c1 [tucatinib]	5	6.61	-14	–	–	–
FC(F)(F)c1ccc(CNc2ccc(Cc3c[nH]c4ncc(Cl)cc34)cn2)cn1 [pexidartinib]	4	5	6.33	–	–	–
Cn1cnc2c(F)c(Nc3ccc(Br)cc3F)c(C(=O)NOCCO)cc21 [binimetinib]	0.465	0.626	2.68	–	–	–
CN1CCN(c2ccc(C(=O)Nc3n[nH]c4ccc(Cc5cc(F)cc(F)c5)cc34)c(NC3CCOCC3)c2)CC1 [entrectinib]	3	95	55	–	–	–
COC(=O)N[C@@H](C)CNc1nccc(-c2cn(C(C)C)nc2-c2cc(Cl)cc(NS(C)(=O)=O)c2F)n1 [encorafenib]	-0.719	3.35	16	–	–	–
C[C@H]1Oc2cc(cnc2N)-c2c(nn(C)c2C#N)CN(C)C(=O)c2ccc(F)cc21 [lorlatinib]	-1.11	30	6	–	–	–
CCN1CCN(c2ccc(Nc3cc(N(C)C(=O)Nc4c(Cl)c(OC)cc(OC)c4Cl)ncn3)cc2)CC1 [infigratinib]	91	9	-10	–	–	–
COc1ccc(CN2C3CC2CN(c2ccc(-c4cc(OCC(C)(C)O)cn5ncc(C#N)c45)cn2)C3)cn1 [selpercatinib]	5.33	4	45	–	–	–
Cn1cnc2c(F)c(Nc3ccc(Br)cc3Cl)c(C(=O)NOCCO)cc21 [selumetinib]	3.77	6	-12	–	–	–
CCc1nc(C(N)=O)c(Nc2ccc(N3CCC(N4CCN(C)CC4)CC3)c(OC)c2)nc1NC1CCOCC1 [gilteritinib]	9	73	66	–	–	–
CCN1C(=O)N(c2c(F)c(OC)cc(OC)c2F)Cc2cnc3[nH]c(CN4CCOCC4)cc3c21 [pemigatinib]	48	1.46	-6	–	–	–
Cn1cc(-c2cc3c(N4CCN(c5ncc([C@@](C)(N)c6ccc(F)cc6)cn5)CC4)ncnn3c2)cn1 [avapritinib]	6	68	73	–	–	–
CNC(=O)c1ccc(-c2cnc3ncc(Cc4ccc5ncccc5c4)n3n2)cc1F [capmatinib]	–	–	–	3	-1	-14
C[C@H](Nc1ncnc2nc[nH]c12)c1cc2cccc(Cl)c2c(=O)n1-c1ccccc1 [duvelisib]	-0.0517	3.49	-7	–	–	–

— paper PMC9516332 (Frontiers in Oncology, 2022)
